Paper PMC8835475, “Salviolone from Salvia miltiorrhiza Roots Impairs Cell Cycle Progression, Colony Formation, and Metalloproteinase-2 Activity in A375 Melanoma Cells: Involvement of P21(Cip1/Waf1) Expression and STAT3 Phosphorylation” (International Journal of Molecular Sciences, 2022)

Columns and labels:
Format in all cases: cell-based, human
A375 melanoma cell line = assay: SRB cell viability assay in A375 cells; conditions: for EC50: Homo sapiens, A-375, read-out: half maximal effective concentration (EC50) able to reduce cell viability; for EC50 / effect on cell viability / A375 cell viability, inhibitor administered alone: A375, SRB, 72 h; for effect on cell viability: at least until 40 µM; for potentiation of the decrease of A375 cell viability induced by 20 µM salviolone or cryptotanshinone: 10 µM inhibitor added 2 h before the diterpene; for A375 cell viability, inhibitor administered alone: concentration-dependent
Experimental: (§1) In preliminary experiments, the evaluation of cell viability at different time after compound administration was carried out with sulforhodamine B (SRB) assay. Indeed, after 24-, 48-, and 72-h treatment, an evident time dependence in the inhibition of cell growth was registered (data not shown). Thus, to evaluate A375 and MeWo cell viability, we decided to perform further SRB experiments with each compound only after 72 h.
(§2) Human MeWo (HTB-65) and A375 (CRL-1619) melanoma cell lines as well as the normal human epidermal melanocyte (NHEM) (PCS-200-013) cell line (ATCC, Manassas, VA, USA) were cultured at 37 °C under 5% CO2 in a humidified atmosphere. Roswell Park Memorial Institute 1640 medium (RPMI, Gibco, Ref.21875, Thermo Scientific, Waltham, MA, USA) was used to culture MeWo cells, while Dulbecco’s Modified Eagle Medium (DMEM, Gibco, Ref. 61965, Thermo Scientific, Waltham, MA, USA) was used for A375 and NHEM cell lines. The culture media were supplemented with 10% fetal bovine serum (FBS, Gibco, Thermo Scientific, Waltham, MA, USA) plus 1% Antibiotic Antimycotic Solution (Gibco, Thermo Scientific). The MEK1 inhibitor U0126 (CAY-70970) and the PI3K inhibitor LY294002 (CAY-70920) were provided by Cayman Chemical, Ann Arbor, MI, USA.
(§3) Melanoma MeWo and A375 cells or NHEM were seeded in 96-well plates (5.0 × 10^3 cells/well for MeWo cells and 2.9 × 10^3 cells/well for A375 or NHEM). After 24-h culture, the cells were treated with different concentrations of compounds 1–7. After 72-h treatment, the cells were fixed by adding 25 µL/well of 50% (w/v) TCA directly into the culture medium. The plates were incubated at 4 °C for 1 h, washed four times with ddH2O, and dried at RT. Staining was performed by adding 50 µL/well of 0.04% (w/v) sulforhodamine B (SRB) sodium salt solution (Sigma-Aldrich, Milan, Italy). After 1-h incubation at RT, the plates were rinsed with 1% HAc and air-dried. SRB was solubilized in a 10 mM Tris-base solution pH 10.5 and Abs492 measured in the plate reader TECAN NanoQuant Infinite M200 Pro (Tecan Group Ltd., Männedorf, Switzerland). Six replicates for each condition/data point were performed.

MeWo melanoma cell line = assay: SRB cell viability assay in MeWo cells; conditions: SRB, 72 h; for EC50: Homo sapiens, read-out: EC50 useful in diminishing cell viability; for effect on cell viability: at least until 40 µM
Experimental: as §1, §2, §3

pERK1/2 = assay: Immunoblot of pERK1/2 in A375 cells; conditions: 10 µM U0126 with compound 4 or 7 at 20 µM
Experimental: (§4) A375 cells were seeded in 6 cm Petri dishes (190 300 cell/dish) and treated with different compounds at 10 or 20 μM. After 48- or 72-h treatment, the cells were scraped using warm 1× sample buffer (2% SDS, 10% glycerol, 50 mM Tris-HCl, 1.75% β-mercaptoethanol, and bromophenol blue) and boiled at 99 °C for 10 min. Total protein extracts were kept at −80 °C until use.
(§5) Protein extracts were analyzed with a 7.5 or 10% polyacrylamide SDS-PAGE and transferred to a polyvinylidene difluoride membrane (PVDF, Thermo Fisher Scientific, Waltham, MA, USA). The membranes were blocked at RT for 1 h with TBST buffer (10 mM Tris-HCl pH 7.5, 100 mM NaCl, 0.1% Tween20) containing 4% Milk (Formulat). Then, they were incubated on a shaker, overnight (ON) at 4 °C, with 5% BSA solution containing primary antibodies against p-Tyr705-STAT3 (#9145, 1:1000), pRb (#8516, 1:2000), pERK (#4370, 1:1000), pAkt (#4060, 1:2000), pSer15-P53 (#9286, 1:2000) (Cell Signaling Technology, Danvers, […], USA), Akt (GTX121937, 1:3000), ERK (GTX134452, 1:6000), Cyclin A2 (GTX-103042, 1:3000), p-Thr160Cdk2 (GTX-133862, 1:3000), p21 (GTX-629543, 1:3000) (Genetex, Alton Pkwj Irvine, CA, USA), p53 (Sc-263, 1:1000), STAT3 (Sc-482, 1:1000), and p-Ser727-STAT3 (Sc-136193, 1:1000) (Santa Cruz Biotechnology, Dallas, TX, USA). The membranes were washed three times with TBST buffer for 30 min and then incubated for 1 h with a horseradish-peroxidase-conjugated secondary antibody (anti-rabbit 1:6000, Genetex), (anti-mouse, 1:4000, Cell Signaling Technology, Danvers, […], USA). They were washed another three times for 30 min with TBST buffer. All protein extracts were normalized with a β-actin protein antibody (GTX-124214, 1:10,000; Genetex, Alton Pkwj Irvine, CA, USA). Immuno-detection was carried out with an ECL kit (GE-Healthcare, Little Chalfont, UK), and the chemiluminescence signals were detected with ChemiDoc (Bio-Rad, Hercules, CA, USA).

pAkt = assay: Immunoblot of pAkt in A375 cells; conditions: 10 µM LY294002 with compound 7 or 4 at 20 µM
Experimental: as §4, §5

Cc1coc2c1C(=O)C(=O)c1c-2ccc2c1CCCC2(C)C [Compound 1, tanshinone IIA]
EC50 (A375 melanoma cell line): ~1 µM | EC50 (MeWo melanoma cell line): 2 µM

Cc1coc2c1C(=O)C(=O)c1c-2ccc2c1[C@@H](O)CCC2(C)C [Compound 2, 1α-hydroxytanshinone]
effect on cell viability (A375 melanoma cell line): ineffective | effect on cell viability (MeWo melanoma cell line): ineffective

Cc1coc2c1C(=O)C(=O)c1c-2ccc2c1C(=O)CCC2(C)C [Compound 3, 1-oxotanshinone]
effect on cell viability (A375 melanoma cell line): ineffective | effect on cell viability (MeWo melanoma cell line): ineffective

C[C@H]1COC2=C1C(=O)C(=O)c1c2ccc2c1[C@H](O)CCC2(C)C [Compound 5, 1β-hydroxycryptotanshinone]
activity rating for inhibition of melanoma cell viability (A375 melanoma cell line; A375 and MeWo, SRB): poorly active | EC50 (A375 melanoma cell line): ~42 µM | EC50 (MeWo melanoma cell line): 45 µM

CC1COc2c1c(=O)oc(=O)c1c3c(ccc21)C(C)(C)CCC3O (stereo not drawn) [Compound 6, 1α-hydroxyanhydride-16R-cryptotanshinone]
effect on cell viability (A375 melanoma cell line): ineffective | effect on cell viability (MeWo melanoma cell line): ineffective

N#CC(=C(/N)Sc1ccccc1N)/C(C#N)=C(/N)Sc1ccccc1N [Compound U0126, reference compound]
potentiation of the decrease of A375 cell viability induced by 20 µM salviolone or cryptotanshinone (A375 melanoma cell line): did not potentiate | A375 cell viability, inhibitor administered alone (A375 melanoma cell line): inhibited | pERK1/2 expression level on co-administration (pERK1/2): strongly inhibited

O=c1cc(N2CCOCC2)oc2c(-c3ccccc3)cccc12 [LY294002, reference compound]
potentiation of the decrease of A375 cell viability induced by 20 µM salviolone or cryptotanshinone (A375 melanoma cell line): did not potentiate | A375 cell viability, inhibitor administered alone (A375 melanoma cell line): inhibited | pAkt expression level on co-administration (pAkt): inhibition
